# Results taken from ChEMBL document CHEMBL3885861, “Open TG-GATES”.
# Organism: Rattus norvegicus
# Experiment: Open TG-GATES - Regimen: Single
# Format: toxicity, organism-based, Sprague-Dawley
# Set-up: regimen Single, gender Male, age 6 weeks
# Details: in vivo, po, 1000 mg/kg, route gavage, dose level High; for APTT / Bas / Eos / Fbg / Hb / Ht / Lym / MCH / MCHC / MCV / Mono / Neu / PT / Plat / RBC / Ret / WBC: tissue Blood; for KIDNEY_L / KIDNEY_R / KIDNEY_TOTAL: tissue Kidney; for LIVER: tissue Liver; for ALP / ALT / AST / BUN / CRE / Ca / Cl / DBIL / GLC / IP / K / LDH / Na / PL / RALB / TBIL / TC / TG / TP / gamma-GTP: tissue Plasma
smiles,measurement,setting,value
COc1cc([C@@H]2c3cc4c(cc3[C@@H](O[C@@H]3O[C@@H]5CO[C@@H](C)O[C@H]5[C@H](O)[C@H]3O)[C@H]3COC(=O)[C@H]23)OCO4)cc(OC)c1O [ETOPOSIDE],TERMINAL_BW,3 h,199.8 g
same,APTT,3 h,16.9 s
same,Bas,3 h,0%
same,Eos,3 h,1%
same,Fbg,3 h,194.6 mg/dL
same,Hb,3 h,13.4 g/dL
same,Ht,3 h,39.9%
same,Lym,3 h,75.2%
same,MCH,3 h,22.5 pg
same,MCHC,3 h,33.7%
same,MCV,3 h,66.6 fL
same,Mono,3 h,7.6%
same,Neu,3 h,16.2%
same,PT,3 h,12.1 s
same,Plat,3 h,113.8 x10_4/uL
same,RBC,3 h,599 x10_4/ul
same,Ret,3 h,9.6%
same,WBC,3 h,81.2 x10_2/uL
same,KIDNEY_L,3 h,0.9 g
same,KIDNEY_R,3 h,0.9 g
same,KIDNEY_TOTAL,3 h,1.8 g
same,LIVER,3 h,9.6 g
same,ALP,3 h,906.2 IU/L
same,ALT,3 h,35.8 IU/L
same,AST,3 h,68 IU/L
same,BUN,3 h,12.4 mg/dL
same,CRE,3 h,0.4 mg/dL
same,Ca,3 h,10.5 mg/dL
same,Cl,3 h,104 meq/L
same,DBIL,3 h,0.026 mg/dL
same,GLC,3 h,186.8 mg/dL
same,IP,3 h,9.8 mg/dL
same,K,3 h,4.5 meq/L
same,LDH,3 h,112.4 IU/L
same,Na,3 h,141 meq/L
same,PL,3 h,132 mg/dL
same,RALB,3 h,3.3 g/dL
same,TBIL,3 h,0.3 mg/dL
same,TC,3 h,71.2 mg/dL
same,TG,3 h,39.4 mg/dL
same,TP,3 h,5.2 g/dL
same,gamma-GTP,3 h,2 IU/L
same,TERMINAL_BW,6 h,200.5 g
same,APTT,6 h,16.7 s
same,Bas,6 h,0%
same,Eos,6 h,0.6%
same,Fbg,6 h,194.4 mg/dL
same,Hb,6 h,13.4 g/dL
same,Ht,6 h,39.7%
same,Lym,6 h,74.4%
same,MCH,6 h,22.1 pg
same,MCHC,6 h,33.8%
same,MCV,6 h,65.4 fL
same,Mono,6 h,10.6%
same,Neu,6 h,14.6%
same,PT,6 h,11.9 s
same,Plat,6 h,114.8 x10_4/uL
same,RBC,6 h,606.4 x10_4/ul
same,Ret,6 h,11.1%
same,WBC,6 h,76.4 x10_2/uL
same,KIDNEY_L,6 h,0.9 g
same,KIDNEY_R,6 h,0.9 g
same,KIDNEY_TOTAL,6 h,1.8 g
same,LIVER,6 h,8.9 g
same,ALP,6 h,782.6 IU/L
same,ALT,6 h,31.6 IU/L
same,AST,6 h,65.8 IU/L
same,BUN,6 h,11 mg/dL
same,CRE,6 h,0.6 mg/dL
same,Ca,6 h,10.4 mg/dL
same,Cl,6 h,104 meq/L
same,DBIL,6 h,0.006 mg/dL
same,GLC,6 h,193.6 mg/dL
same,IP,6 h,10.5 mg/dL
same,K,6 h,4.8 meq/L
same,LDH,6 h,105.4 IU/L
same,Na,6 h,140 meq/L
same,PL,6 h,140.2 mg/dL
same,RALB,6 h,3.3 g/dL
same,TBIL,6 h,0.3 mg/dL
same,TC,6 h,82.8 mg/dL
same,TG,6 h,39 mg/dL
same,TP,6 h,5.2 g/dL
same,gamma-GTP,6 h,1 IU/L
same,TERMINAL_BW,9 h,193.9 g
same,APTT,9 h,17.2 s
same,Bas,9 h,0%
same,Eos,9 h,0.6%
same,Fbg,9 h,201 mg/dL
same,Hb,9 h,13.8 g/dL
same,Ht,9 h,41.4%
same,Lym,9 h,86.4%
same,MCH,9 h,21.9 pg
same,MCHC,9 h,33.4%
same,MCV,9 h,65.7 fL
same,Mono,9 h,3.8%
same,Neu,9 h,9.2%
same,PT,9 h,11.3 s
same,Plat,9 h,117 x10_4/uL
same,RBC,9 h,630.4 x10_4/ul
same,Ret,9 h,8.4%
same,WBC,9 h,65.4 x10_2/uL
same,KIDNEY_L,9 h,0.9 g
same,KIDNEY_R,9 h,0.9 g
same,KIDNEY_TOTAL,9 h,1.8 g
same,LIVER,9 h,8.3 g
same,ALP,9 h,794 IU/L
same,ALT,9 h,29.4 IU/L
same,AST,9 h,63.4 IU/L
same,BUN,9 h,13.2 mg/dL
same,CRE,9 h,0.5 mg/dL
same,Ca,9 h,10.6 mg/dL
same,Cl,9 h,105.4 meq/L
same,DBIL,9 h,0.022 mg/dL
same,GLC,9 h,212.6 mg/dL
same,IP,9 h,10.1 mg/dL
same,K,9 h,4.7 meq/L
same,LDH,9 h,81.4 IU/L
same,Na,9 h,142.2 meq/L
same,PL,9 h,124.6 mg/dL
same,RALB,9 h,3.5 g/dL
same,TBIL,9 h,0.4 mg/dL
same,TC,9 h,67.6 mg/dL
same,TG,9 h,26.4 mg/dL
same,TP,9 h,5.4 g/dL
same,gamma-GTP,9 h,1.8 IU/L
same,TERMINAL_BW,24 h,205.7 g
same,APTT,24 h,16.4 s
same,Bas,24 h,0%
same,Eos,24 h,1%
same,Fbg,24 h,207 mg/dL
same,Hb,24 h,13.6 g/dL
same,Ht,24 h,40.4%
same,Lym,24 h,82.6%
same,MCH,24 h,21.5 pg
same,MCHC,24 h,33.6%
same,MCV,24 h,63.9 fL
same,Mono,24 h,9%
same,Neu,24 h,7.4%
same,PT,24 h,11.9 s
same,Plat,24 h,111.5 x10_4/uL
same,RBC,24 h,634 x10_4/ul
same,Ret,24 h,6.1%
same,WBC,24 h,56.3 x10_2/uL
same,KIDNEY_L,24 h,1 g
same,KIDNEY_R,24 h,1 g
same,KIDNEY_TOTAL,24 h,1.9 g
same,LIVER,24 h,8.8 g
same,ALP,24 h,979.6 IU/L
same,ALT,24 h,32 IU/L
same,AST,24 h,66.6 IU/L
same,CRE,24 h,0.5 mg/dL
same,Ca,24 h,10.9 mg/dL
same,Cl,24 h,104.8 meq/L
same,DBIL,24 h,0.01 mg/dL
same,GLC,24 h,182.8 mg/dL
same,IP,24 h,9.2 mg/dL
same,K,24 h,5 meq/L
same,LDH,24 h,103.4 IU/L
same,Na,24 h,140.2 meq/L
same,PL,24 h,136.6 mg/dL
same,RALB,24 h,3.5 g/dL
same,TBIL,24 h,0.3 mg/dL
same,TC,24 h,81 mg/dL
same,TG,24 h,47.6 mg/dL
same,TP,24 h,5.6 g/dL
same,gamma-GTP,24 h,1.6 IU/L
